From patent US20100267697A1, “ION CHANNEL MODULATORS” (Wyeth, priority 2006, published 2010)
pIC50: −log10 of the molar value.

Molecular target: T1, human Cav2.2 (composed of the subunits α1, β3 and α2δ) (Homo sapiens, UniProt Q00975)
T1 construct: expressed in transfected cells
Test: FLIPR assay (TSA201 cells stably transfected with human Cav2.2 and human Kir2.3, FLUO-4 Ca2+ signal, KCl depolarization)
Assay type: cell-based
Details: 70 mM KCl depolarization, average value
Experimental: TSA201 cells stably transfected with human Cav2.2 (composed of the subunits α1, β3 and α2δ) and human Kir2.3 to enhance the FLIPR Ca^2+ signal were used. These cells were plated on 384-well collagen-coated plates (BD Bioscience, Franklin Lakes, N.J.) at a density of 2×10^4 cells/well one day prior to the FLIPR assay. […] Culture media is removed and replaced with 25 μl of the FLUO-4 dye solution and incubated for one hour at room temperature. The cell plate is then placed on the FLIPR where the dye is aspirated off and replaced with 25 μl of HBSS (Invitrogen, Carlsbad, Calif.). The HBSS is then aspirated and replaced with […] of compound which is diluted in HBSS with 1% DMSO. Compounds are incubated on the cells for 15 minutes. The cells are then depolarized with 25 μl of 140 mM KCl solution (also containing 2 mM CaCl2 and 10 mM HEPES). The final concentration of KCl on the cells is 70 mM.

T1 sequence (Q00975 whole entry): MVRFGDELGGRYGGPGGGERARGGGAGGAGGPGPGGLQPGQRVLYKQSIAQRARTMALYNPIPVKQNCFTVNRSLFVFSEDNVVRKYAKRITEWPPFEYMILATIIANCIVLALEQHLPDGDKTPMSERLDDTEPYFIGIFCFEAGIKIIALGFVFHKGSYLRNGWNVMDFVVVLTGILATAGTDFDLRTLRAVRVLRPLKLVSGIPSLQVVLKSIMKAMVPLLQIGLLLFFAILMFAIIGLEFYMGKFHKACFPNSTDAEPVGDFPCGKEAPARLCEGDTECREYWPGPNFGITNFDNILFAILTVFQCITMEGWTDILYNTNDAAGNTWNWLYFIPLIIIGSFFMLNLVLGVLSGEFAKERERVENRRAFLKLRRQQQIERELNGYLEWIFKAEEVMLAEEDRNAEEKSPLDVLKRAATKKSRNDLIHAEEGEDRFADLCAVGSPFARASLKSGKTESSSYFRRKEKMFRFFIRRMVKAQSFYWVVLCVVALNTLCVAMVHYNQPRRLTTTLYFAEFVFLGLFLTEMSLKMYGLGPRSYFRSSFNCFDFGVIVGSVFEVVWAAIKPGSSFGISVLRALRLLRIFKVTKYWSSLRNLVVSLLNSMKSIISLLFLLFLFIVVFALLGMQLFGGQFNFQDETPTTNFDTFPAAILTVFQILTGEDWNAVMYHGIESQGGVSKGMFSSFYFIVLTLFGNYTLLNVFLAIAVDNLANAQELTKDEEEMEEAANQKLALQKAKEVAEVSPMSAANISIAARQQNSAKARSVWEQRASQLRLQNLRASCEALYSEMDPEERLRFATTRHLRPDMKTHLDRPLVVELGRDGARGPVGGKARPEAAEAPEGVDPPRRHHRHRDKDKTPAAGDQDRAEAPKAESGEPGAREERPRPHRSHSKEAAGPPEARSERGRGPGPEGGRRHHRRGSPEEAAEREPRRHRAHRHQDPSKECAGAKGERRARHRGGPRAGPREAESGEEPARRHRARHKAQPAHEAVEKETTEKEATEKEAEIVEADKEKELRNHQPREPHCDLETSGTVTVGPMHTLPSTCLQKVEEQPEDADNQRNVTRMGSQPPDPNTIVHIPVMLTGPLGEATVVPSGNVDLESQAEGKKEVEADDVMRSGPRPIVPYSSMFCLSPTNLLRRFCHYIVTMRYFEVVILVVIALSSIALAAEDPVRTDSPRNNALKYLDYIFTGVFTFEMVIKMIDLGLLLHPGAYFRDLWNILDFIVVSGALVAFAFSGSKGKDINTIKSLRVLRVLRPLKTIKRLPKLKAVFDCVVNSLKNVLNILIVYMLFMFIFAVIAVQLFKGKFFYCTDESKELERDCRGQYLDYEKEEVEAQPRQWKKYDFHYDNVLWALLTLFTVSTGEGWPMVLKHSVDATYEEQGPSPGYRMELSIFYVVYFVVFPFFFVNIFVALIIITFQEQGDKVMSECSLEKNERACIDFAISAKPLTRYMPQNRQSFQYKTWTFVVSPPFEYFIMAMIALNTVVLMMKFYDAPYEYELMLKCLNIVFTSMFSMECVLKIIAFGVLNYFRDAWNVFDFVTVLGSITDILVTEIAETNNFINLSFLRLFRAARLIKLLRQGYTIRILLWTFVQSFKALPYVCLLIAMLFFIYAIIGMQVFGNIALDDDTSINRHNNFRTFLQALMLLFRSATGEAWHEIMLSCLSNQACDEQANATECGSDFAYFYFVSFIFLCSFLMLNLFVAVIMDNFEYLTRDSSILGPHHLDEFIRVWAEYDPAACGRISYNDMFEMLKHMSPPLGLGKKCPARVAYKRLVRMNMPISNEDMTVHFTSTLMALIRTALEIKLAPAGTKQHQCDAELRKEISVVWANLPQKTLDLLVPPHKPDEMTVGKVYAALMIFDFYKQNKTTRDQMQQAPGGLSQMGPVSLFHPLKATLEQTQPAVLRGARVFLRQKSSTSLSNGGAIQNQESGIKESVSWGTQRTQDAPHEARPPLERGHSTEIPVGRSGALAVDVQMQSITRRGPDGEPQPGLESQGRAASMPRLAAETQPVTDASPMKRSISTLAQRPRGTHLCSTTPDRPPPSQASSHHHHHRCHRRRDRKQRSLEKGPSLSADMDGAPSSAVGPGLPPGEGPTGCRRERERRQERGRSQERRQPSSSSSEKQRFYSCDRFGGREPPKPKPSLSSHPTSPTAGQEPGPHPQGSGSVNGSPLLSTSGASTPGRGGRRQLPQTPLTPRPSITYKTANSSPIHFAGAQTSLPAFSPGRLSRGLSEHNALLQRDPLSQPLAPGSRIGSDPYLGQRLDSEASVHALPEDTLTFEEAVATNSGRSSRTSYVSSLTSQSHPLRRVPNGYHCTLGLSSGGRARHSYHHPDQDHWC
T1 sequence (P54284 whole entry partner): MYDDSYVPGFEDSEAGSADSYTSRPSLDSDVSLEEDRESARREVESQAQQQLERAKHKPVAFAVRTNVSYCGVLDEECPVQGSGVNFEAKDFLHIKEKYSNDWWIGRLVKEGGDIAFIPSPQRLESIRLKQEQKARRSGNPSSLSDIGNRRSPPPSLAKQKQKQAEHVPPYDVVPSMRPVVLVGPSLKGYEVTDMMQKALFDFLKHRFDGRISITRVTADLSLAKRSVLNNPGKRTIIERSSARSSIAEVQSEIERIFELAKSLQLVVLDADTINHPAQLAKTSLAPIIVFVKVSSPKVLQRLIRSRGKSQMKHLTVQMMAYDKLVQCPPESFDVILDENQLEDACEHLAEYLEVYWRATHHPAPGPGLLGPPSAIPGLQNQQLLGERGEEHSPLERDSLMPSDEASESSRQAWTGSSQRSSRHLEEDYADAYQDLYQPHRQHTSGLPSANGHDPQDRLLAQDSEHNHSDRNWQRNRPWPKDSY
T1 sequence (P54289 25-946 partner limits assumed): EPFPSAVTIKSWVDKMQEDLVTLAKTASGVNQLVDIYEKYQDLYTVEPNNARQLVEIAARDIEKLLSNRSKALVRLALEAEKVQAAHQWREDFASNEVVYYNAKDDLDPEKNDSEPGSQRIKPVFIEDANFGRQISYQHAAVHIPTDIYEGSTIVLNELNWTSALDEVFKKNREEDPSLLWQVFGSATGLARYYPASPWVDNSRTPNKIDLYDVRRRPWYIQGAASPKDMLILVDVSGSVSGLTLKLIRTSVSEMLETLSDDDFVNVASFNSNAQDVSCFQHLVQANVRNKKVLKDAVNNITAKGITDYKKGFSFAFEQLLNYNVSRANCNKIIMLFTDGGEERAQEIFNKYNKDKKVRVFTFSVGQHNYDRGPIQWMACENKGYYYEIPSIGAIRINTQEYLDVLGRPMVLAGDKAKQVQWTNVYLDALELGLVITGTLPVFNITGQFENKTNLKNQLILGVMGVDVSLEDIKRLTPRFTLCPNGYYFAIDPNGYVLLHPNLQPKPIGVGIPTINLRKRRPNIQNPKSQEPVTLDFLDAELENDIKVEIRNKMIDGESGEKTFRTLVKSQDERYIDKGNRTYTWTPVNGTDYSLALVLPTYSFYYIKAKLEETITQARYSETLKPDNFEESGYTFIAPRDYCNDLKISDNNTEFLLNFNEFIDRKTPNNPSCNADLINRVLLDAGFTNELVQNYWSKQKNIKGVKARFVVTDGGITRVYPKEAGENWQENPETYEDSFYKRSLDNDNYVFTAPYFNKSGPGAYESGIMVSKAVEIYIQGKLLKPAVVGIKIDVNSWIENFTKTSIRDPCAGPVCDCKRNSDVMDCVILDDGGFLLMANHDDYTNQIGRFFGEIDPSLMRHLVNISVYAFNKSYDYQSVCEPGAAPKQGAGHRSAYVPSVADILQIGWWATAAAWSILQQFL
T1 sequence (P54289 947-1103 partner limits assumed): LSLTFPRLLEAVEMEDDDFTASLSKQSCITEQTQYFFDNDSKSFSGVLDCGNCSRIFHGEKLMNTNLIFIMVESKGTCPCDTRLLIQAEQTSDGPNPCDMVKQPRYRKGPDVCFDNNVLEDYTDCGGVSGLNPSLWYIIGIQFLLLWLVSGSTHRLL

Compound | pIC50
CC(C)(C)C(=O)N(Cc1csc(-c2ccccc2)n1)c1ccc(F)cc1 [Compound 180, N-(4-fluorophenyl)-2,2-dimethyl-N-[(2-phenyl-1,3-thiazol-4-yl)methyl]propanamide] | 5.10
CC(C)(C)C(=O)N(Cc1csc(N2CCC3(CC2)OCCO3)n1)c1ccc(F)cc1 [Compound 181, N-{[2-(1,4-dioxa-8-azaspiro[4.5]dec-8-yl)-1,3-thiazol-4-yl]methyl}-N-(4-fluorophenyl)-2,2-dimethylpropanamide] | 5.57
CC(C)(C)C(=O)N(Cc1csc(N2CCC(O)CC2)n1)c1ccc(F)cc1 [Compound 182, N-(4-fluorophenyl)-N-{[2-(4-hydroxypiperidin-1-yl)-1,3-thiazol-4-yl]methyl}-2,2-dimethylpropanamide] | 5.09
CC(C)(C)C(=O)N(Cc1csc(N2CCCCCC2)n1)c1ccc(F)cc1 [Compound 183, N-[(2-azepan-1-yl-1,3-thiazol-4-yl)methyl]-N-(4-fluorophenyl)-2,2-dimethylpropanamide] | 5.64
CC(C)(C)C(=O)N(Cc1csc(N2CCCCCCC2)n1)c1ccc(F)cc1 [Compound 184, N-[(2-azocan-1-yl-1,3-thiazol-4-yl)methyl]-N-(4-fluorophenyl)-2,2-dimethylpropanamide] | 5.80
CC(C)(C)C(=O)N(Cc1csc(N2CCC(CO)CC2)n1)c1ccc(F)cc1 [Compound 185, N-(4-fluorophenyl)-N-({2-[4-(hydroxymethyl)piperidin-1-yl]-1,3-thiazol-4-yl}methyl)-2,2-dimethylpropanamide] | 5.60
CC(C)(C)C(=O)N(Cc1csc(N2CCCC(O)C2)n1)c1ccc(F)cc1 (centres unmarked) [Compound 186, N-(4-fluroophenyl)-N-{[2-(3-hydroxypiperidin-1-yl)-1,3-thiazol-4-yl]methyl}-2,2-dimethylpropanamide] | 5.25
CC(C)(C)C(=O)N(Cc1csc(N2CCCC(CO)C2)n1)c1ccc(F)cc1 (centres unmarked) [Compound 187, N-(4-fluorophenyl)-N-({2-[3-(hydroxymethyl)piperidin-1-yl]-1,3-thiazol-4-yl}methyl)-2,2-dimethylpropanamide] | 5.52
CC(C)(C)C(=O)N(Cc1csc(N2CCC(C#N)CC2)n1)c1ccc(F)cc1 [Compound 188, N-{[2-(4-cyanopiperidin-1-yl)-1,3-thiazol-4-yl]methyl}-N-(4-fluorophenyl)-2,2-dimethylpropanamide] | 5.42
CC(C)(C)C(=O)N(Cc1csc(N2CCSCC2)n1)c1ccc(F)cc1 [Compound 189, N-(4-fluorophenyl)-2,2-dimethyl-N-[(2-thiomorpholin-4-yl-1,3-thiazol-4-yl)methyl]propanamide] | 5.80
CC1CC(C)CN(c2nc(CN(C(=O)C(C)(C)C)c3ccc(F)cc3)cs2)C1 (centres unmarked) [Compound 190, N-{[2-(3,5-dimethylpiperidin-1-yl)-1,3-thiazol-4-yl]methyl}-N-(4-fluorophenyl)-2,2-dimethylpropanamide] | 5.66
CC1CCN(c2nc(CN(C(=O)C(C)(C)C)c3ccc(F)cc3)cs2)CC1 [Compound 192, N-(4-fluorophenyl)-2,2-dimethyl-N-{[2-(4-methylpiperidin-1-yl)-1,3-thiazol-4-yl]methyl}propanamide] | 5.72
CC(C)(C)C(=O)N(Cc1csc(N2CCC(c3ccccc3)CC2)n1)c1ccc(F)cc1 [Compound 193, N-(4-fluorophenyl)-2,2-dimethyl-N-{[2-(4-phenylpiperidin-1-yl)-1,3-thiazol-4-yl]methyl}propanamide] | 5.51
CC(C)(C)C(=O)N(Cc1cnc(N2CCCCC2)s1)c1ccc(F)cc1 [Compound 194, N-(4-fluorophenyl)-2,2-dimethyl-N-[(2-piperidin-1-yl-1,3-thiazol-5-yl)methyl]propanamide] | 5.49
CC(C)(C)C(=O)N(Cc1ccc(Cl)nc1)c1ccc(F)cc1 [Compound 195, N-[(6-chloropyridin-3-yl)methyl]-N-(4-fluorophenyl)-2,2-dimethylpropanamide] | 5.00
CC(C)(C)C(=O)N(Cc1ccc(N2CCOCC2)nc1)c1ccc(F)cc1 [Compound 196, N-(4-fluorophenyl)-2,2-dimethyl-N-[(6-morpholin-4-ylpyridin-3-yl)methyl]propanamide] | 4.86
CCN(c1nc(CN(C(C)=O)C2CCCCC2)cs1)C1CC1 [Compound 197, N-cyclohexyl-N-({2-[cyclopropyl(ethyl)amino]-1,3-thiaozl-4-yl}methyl)acetamide] | 5.24
CCN(c1nc(CN(C(=O)C2CCCCC2)C2CCCCC2)cs1)C1CC1 [Compound 198, N-cyclohexyl-N-({2-[cyclopropyl(ethyl)amino]-1,3-thiazol-4-yl}methyl)cyclohexanecarboxamide] | 5.48
CC(=O)N(Cc1csc(N2CCOCC2)n1)C1CCCCC1 [Compound 199, N-cyclohexyl-N-[(2-morpholin-4-yl-1,3-thiazol-4-yl)methyl]acetamide] | 4.57

Compound | pIC50
O=C(C1CCCCC1)N(Cc1csc(N2CCOCC2)n1)C1CCCCC1 [Compound 200, N-cyclohexyl-N-[(2-morpholin-4-yl-1,3-thiazol-4-yl)methyl]cyclohexanecarboxamide] | 5.20
O=C(Cc1ccccc1)N(Cc1csc(N2CCOCC2)n1)C1CCCCC1 [Compound 201, N-cyclohexyl-N-[(2-morpholin-4-yl-1,3-thiazol-4-yl)methyl]-2-phenylacetamide] | 5.01
CC(C)(C)OC(=O)c1cccc(-c2ccc(CN(C(=O)C(C)(C)C)c3ccc(F)cc3)cn2)c1 [Compound 202, tert-butyl 3-(5-{[(2,2-dimethylpropanoyl)(4-fluorophenyl)amino]methyl}pyridin-2-yl)benzoate] | 4.95
CC(C)(C)C(=O)N(Cc1ccc(-c2cccc(C(=O)O)c2)nc1)c1ccc(F)cc1 [Compound 203, 3-(5-{[(2,2-dimethylpropanoyl)(4-fluorophenyl)amino]methyl}pyridin-2-yl)benzoic acid] | 4.41
CC(C)(C)C(=O)N(Cc1csc(N2CCOCC2)n1)C1CCCCC1 [Compound 204, N-cyclohexyl-2,2-dimethyl-N-[(2-morpholin-4-yl-1,3-thiazol-4-yl)methyl]propanamide] | 4.94
CCN(c1nc(CN(C(=O)C(C)(C)C)C2CCCCC2)cs1)C1CC1 [Compound 205, N-cyclohexyl-N-({2-[cyclopropyl(ethyl)amino]-1,3-thiazol-4-yl}methyl)-2,2-dimethylpropanamide] | 5.68
CC(C)(C)C(=O)N(Cc1csc(C2CCCCC2)n1)c1ccc(F)cc1 [Compound 206, N-[(2-cyclohexyl-1,3-thiazol-4-yl)methyl]-N-(4-fluorophenyl)-2,2-dimethylpropanamide] | 5.21
O=C(C1CC1)N(Cc1csc(N2CCOCC2)n1)c1ccc(F)cc1 [Compound 207, N-(4-fluorophenyl)-N-[(2-morpholin-4-yl-1,3-thiazol-4-yl)methyl]cyclopropanecarboxamide] | 4.62
CC(C)C(=O)N(Cc1csc(N2CCOCC2)n1)c1ccc(F)cc1 [Compound 208, N-(4-fluorophenyl)-2-methyl-N-[(2-morpholin-4-yl-1,3-thiazol-4-yl)methyl]propanamide] | 4.65
CC(C)(C)OC(=O)N1CCC(c2nc(CN(C(=O)C(C)(C)C)c3ccc(F)cc3)cs2)CC1 [Compound 209, tert-butyl 4-(4-{[(2,2-dimethylpropanoyl)(4-fluorophenyl)amino]methyl}--1,3-thiazol-2-yl)piperidine-1-carboxylate] | 5.57
CCN(c1nc(CN(C(C)=O)c2ccc(F)cc2)cs1)C1CC1 [Compound 210, N-({2-[cyclopropyl(ethyl)amino]-1,3-thiazol-4-yl}methyl)-N-(4-fluorophenyl)acetamide] | 5.04
CCN(c1nc(CN(C(=O)C2CCCCC2)c2ccc(F)cc2)cs1)C1CC1 [Compound 211, N-({2-[cyclopropyl(ethyl)amino]-1,3-thiazol-4-yl}methyl)-N-(4-fluorophenyl)cyclohexanecarboxamide] | 5.62
CC(C)(C)C(=O)N(CCc1csc(N2CCOCC2)n1)c1ccc(F)cc1 [Compound 212, N-(4-flurophenyl)-2,2-dimethyl-N-[2-(2-morpholin-4-yl-1,3-thiazol-4-yl)ethyl]propanamide] | 5.23
CC(C)(C)C(=O)N(CCCc1csc(N2CCOCC2)n1)c1ccc(F)cc1 [Compound 213, N-(4-fluorophenyl)-2,2-dimethyl-N-[3-(2-morpholin-4-yl-1,3-thiazol-4-yl)propyl]propanamide] | 5.42
CC(=O)N(Cc1csc(Br)n1)c1ccc(F)cc1 [Compound 214, N-[(2-bromo-1,3-thiazol-4-yl)methyl]-N-(4-fluorophenyl)acetamide] | 4.31
CC(=O)N(Cc1ccc(Cl)nc1)c1ccc(F)cc1 [Compound 215, N-[(6-chloropyridin-3-yl)methyl]-N-(4-fluorophenyl)acetamide] | 4.67
CC(=O)N(Cc1csc(N2CCN(C)CC2)n1)c1ccc(F)cc1 [Compound 216, N-(4-fluorophenyl)-N-{[2-(4-methylpiperazin-1-yl)-1,3-thiazol-4-yl]methyl}acetamide] | 4.53
CC(=O)N(Cc1csc(N2CCCN(C)CC2)n1)c1ccc(F)cc1 [Compound 217, N-(4-fluorophenyl)-N-{[2-(4-methyl-1,4-diazepan-1-yl)-1,3-thiazol-4-yl]methyl}acetamide] | 4.53
CC(=O)N(Cc1csc(N2CCOCC2)n1)c1ccc(F)cc1 [Compound 218, N-(4-fluorophenyl)-N-[(2-morpholin-4-yl-1,3-thiaozl-4-yl)methyl]acetamide] | 4.63
